In PMC8800111 (The Journal of Biological Chemistry, 2021):

How the values were obtained:
[1] = target: proteins of U3A human fibrosarcoma cells (4462 proteins detected) (Homo sapiens, UniProt O75449); format: cell-based; conditions: protein KATNA1; U3A cells
[2] = target: proteins of U3A human fibrosarcoma cells (4462 proteins detected) (Homo sapiens, UniProt P0C2W1); format: cell-based; conditions: protein FBXO45, U3A cells
[3] = target: proteins of U3A human fibrosarcoma cells (4462 proteins detected) (Homo sapiens, UniProt P23921); format: cell-based; conditions: protein RRM1; U3A, 10 μM, 2 h
Sequence of proteins of U3A human fibrosarcoma cells (4462 proteins detected) (Homo sapiens, UniProt P23921) (P23921 whole entry): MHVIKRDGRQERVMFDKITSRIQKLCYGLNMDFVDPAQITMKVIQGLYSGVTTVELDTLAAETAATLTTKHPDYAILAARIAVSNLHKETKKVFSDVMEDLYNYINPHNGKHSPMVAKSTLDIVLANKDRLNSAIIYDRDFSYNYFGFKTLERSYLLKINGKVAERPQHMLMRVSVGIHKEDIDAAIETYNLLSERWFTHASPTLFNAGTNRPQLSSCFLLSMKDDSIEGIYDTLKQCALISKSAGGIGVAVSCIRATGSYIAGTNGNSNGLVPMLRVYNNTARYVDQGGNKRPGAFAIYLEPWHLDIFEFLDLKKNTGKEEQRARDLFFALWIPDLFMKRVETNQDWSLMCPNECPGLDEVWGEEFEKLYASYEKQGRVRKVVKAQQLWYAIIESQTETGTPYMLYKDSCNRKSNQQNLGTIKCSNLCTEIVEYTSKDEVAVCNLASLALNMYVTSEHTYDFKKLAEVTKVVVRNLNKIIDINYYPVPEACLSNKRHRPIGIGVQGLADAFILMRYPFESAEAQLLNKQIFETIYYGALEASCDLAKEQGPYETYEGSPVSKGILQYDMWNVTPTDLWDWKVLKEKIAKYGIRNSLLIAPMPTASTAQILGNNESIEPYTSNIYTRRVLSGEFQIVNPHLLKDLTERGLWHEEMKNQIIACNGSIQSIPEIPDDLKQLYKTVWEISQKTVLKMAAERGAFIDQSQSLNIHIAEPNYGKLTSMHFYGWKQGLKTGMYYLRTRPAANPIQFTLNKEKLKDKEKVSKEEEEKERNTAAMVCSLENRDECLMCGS

[4] = target: proteins of U3A human fibrosarcoma cells (4462 proteins detected) (Homo sapiens, UniProt Q9BQG0); format: cell-based; conditions: protein MYBBP1A; U3A, 10 μM, 2 h
Sequence of proteins of U3A human fibrosarcoma cells (4462 proteins detected) (Homo sapiens, UniProt Q9BQG0) (Q9BQG0 whole entry): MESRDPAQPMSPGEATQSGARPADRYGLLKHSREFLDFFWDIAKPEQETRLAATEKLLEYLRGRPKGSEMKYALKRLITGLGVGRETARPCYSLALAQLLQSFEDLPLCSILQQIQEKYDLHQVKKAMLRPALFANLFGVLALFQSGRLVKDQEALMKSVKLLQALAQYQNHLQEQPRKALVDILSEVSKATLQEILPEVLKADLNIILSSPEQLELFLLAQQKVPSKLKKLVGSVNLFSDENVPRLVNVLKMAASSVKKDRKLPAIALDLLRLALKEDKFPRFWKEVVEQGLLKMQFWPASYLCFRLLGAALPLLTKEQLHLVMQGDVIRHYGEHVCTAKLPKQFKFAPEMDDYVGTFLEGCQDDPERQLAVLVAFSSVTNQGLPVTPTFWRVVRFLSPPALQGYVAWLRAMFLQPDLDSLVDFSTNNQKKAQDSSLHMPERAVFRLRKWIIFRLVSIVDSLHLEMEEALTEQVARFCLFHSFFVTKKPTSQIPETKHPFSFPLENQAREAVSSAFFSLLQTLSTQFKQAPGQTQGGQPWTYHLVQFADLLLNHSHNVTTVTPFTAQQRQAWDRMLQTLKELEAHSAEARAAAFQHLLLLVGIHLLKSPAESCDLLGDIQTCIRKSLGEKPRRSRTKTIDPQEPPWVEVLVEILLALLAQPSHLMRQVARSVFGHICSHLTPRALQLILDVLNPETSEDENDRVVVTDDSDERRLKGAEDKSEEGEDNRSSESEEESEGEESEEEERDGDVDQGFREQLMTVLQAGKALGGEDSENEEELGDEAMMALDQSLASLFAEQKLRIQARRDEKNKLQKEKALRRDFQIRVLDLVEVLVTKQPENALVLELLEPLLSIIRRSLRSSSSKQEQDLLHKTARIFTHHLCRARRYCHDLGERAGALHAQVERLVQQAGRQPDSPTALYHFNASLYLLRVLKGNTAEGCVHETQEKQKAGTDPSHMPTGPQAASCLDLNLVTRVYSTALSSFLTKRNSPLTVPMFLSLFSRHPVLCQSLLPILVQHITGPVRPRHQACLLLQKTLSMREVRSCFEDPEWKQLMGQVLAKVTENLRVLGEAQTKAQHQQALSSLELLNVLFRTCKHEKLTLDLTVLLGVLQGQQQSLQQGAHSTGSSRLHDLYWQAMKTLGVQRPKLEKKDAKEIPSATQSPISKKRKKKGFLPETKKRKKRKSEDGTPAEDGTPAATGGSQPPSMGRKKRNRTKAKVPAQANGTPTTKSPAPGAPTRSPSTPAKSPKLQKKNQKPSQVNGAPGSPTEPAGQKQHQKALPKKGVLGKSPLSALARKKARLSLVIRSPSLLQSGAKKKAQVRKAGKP

DHFR [5] = target: T1, DHFR (Homo sapiens, UniProt P00374); experiment: Cellular thermal shift assay (CETSA) in U3A cell lysate; format: binding; conditions: 10 μM, 10 min
T1 sequence (P00374 1-187): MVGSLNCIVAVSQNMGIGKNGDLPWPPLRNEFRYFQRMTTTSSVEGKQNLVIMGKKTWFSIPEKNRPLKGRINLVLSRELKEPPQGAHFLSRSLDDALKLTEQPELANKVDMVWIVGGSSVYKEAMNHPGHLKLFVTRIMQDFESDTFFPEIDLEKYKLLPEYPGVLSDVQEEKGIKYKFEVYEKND
Procedure: (§1) Protein abundance was measured by immunoblotting and band quantification.
U3A cells were cultured in DMEM (Thermo Fisher Scientific) with 10% heat-inactivated fetal bovine serum and 1% penicillin/streptomycin. […] Cells were washed once with PBS, harvested using trypsin, and centrifuged at 300g. The pellet was resuspended in Tris-buffered saline (TBS) supplemented with cOmplete protease inhibitor cocktail (Roche), aliquoted (50 μl; 8 × 10^5 cells per temperature) into PCR strip tubes, and heated at the indicated temperature in a Veriti Thermal Cycler (Applied Biosystems) for 3 min, then cooled for another 3 min at room temperature. Cells were then lysed by freeze–thawing three times with 3-min incubations in an ethanol/dry ice bath and a water bath at 37 °C. The lysates were then centrifuged at 17,000g for 20 min at 4 °C to remove cellular debris and pelleted protein aggregates. Supernatants (40 μl) were transferred to new tubes and prepared for immunoblotting. […] Briefly, U3A cells in exponential growth rate were collected, resuspended in TBS supplemented with cOmplete protease inhibitor cocktail (Roche), lysed by freeze–thaw cycle, and centrifuged at 17,000g for 20 min at 4 °C. […] Band intensities were quantified using Fiji ([42]) and then plotted and fitted in GraphPad Prism (GraphPad Software, Inc) to obtain apparent Tagg values.

CHCHD2 = CHCHD2 (Homo sapiens, UniProt Q9Y6H1); experiment: Cellular thermal shift assay (CETSA) in intact U3A cells; format: cell-based; conditions: 10 μM, 10 min
Sequence of CHCHD2 (Q9Y6H1 whole entry): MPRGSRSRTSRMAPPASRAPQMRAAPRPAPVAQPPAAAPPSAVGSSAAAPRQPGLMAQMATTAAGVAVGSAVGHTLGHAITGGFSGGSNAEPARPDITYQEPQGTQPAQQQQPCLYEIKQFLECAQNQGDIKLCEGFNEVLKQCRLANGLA
Procedure: as §1
U3A cells were cultured in DMEM (Thermo Fisher Scientific) with 10% heat-inactivated fetal bovine serum and 1% penicillin/streptomycin. […] Cells were washed once with PBS, harvested using trypsin, and centrifuged at 300g. The pellet was resuspended in Tris-buffered saline (TBS) supplemented with cOmplete protease inhibitor cocktail (Roche), aliquoted (50 μl; 8 × 10^5 cells per temperature) into PCR strip tubes, and heated at the indicated temperature in a Veriti Thermal Cycler (Applied Biosystems) for 3 min, then cooled for another 3 min at room temperature. Cells were then lysed by freeze–thawing three times with 3-min incubations in an ethanol/dry ice bath and a water bath at 37 °C. The lysates were then centrifuged at 17,000g for 20 min at 4 °C to remove cellular debris and pelleted protein aggregates. Supernatants (40 μl) were transferred to new tubes and prepared for immunoblotting. […] DHFR stabilization was evaluated with superoxide dismutase 1 as a thermostable loading control. Band intensities were quantified using Fiji ([42]) and then plotted and fitted in GraphPad Prism (GraphPad Software, Inc) to obtain apparent Tagg values.
(A) DHFR protein levels in Fig 2C were quantified and plotted. […] Soluble protein levels were analyzed by immunoblotting with the indicated antibodies. […]

U3A cells = experiment: Cellular ATP levels (CellTiter-Glo); format: cell-based, human; conditions: 10 μM, 6 h
[6] = tested on: STAT3 target genes in U3A cells; experiment: STAT3 target gene expression by qRT-PCR in U3A cells; format: cell-based, human; conditions: 10 μM 1 h, OSM 90 min
[7] = tested on: STAT3 target genes in SKBR3 cells; experiment: STAT3 target gene expression by qRT-PCR in SKBR3 cells; format: cell-based, human; conditions: 10 μM 1 h, OSM 60 min
Procedure: Cells were stimulated with 10 ng/ml interleukin 6 (Peprotech) or 10 ng/ml OSM (Peprotech). Cells were stimulated for 15 min for whole cell lysate immunoblotting, 60 to 90 min for qRT–PCR, and 5 to 6 h for luciferase reporter assays.
Total RNA was extracted from cells using the RNeasy Mini Kit (Qiagen). Complementary DNA was generated using the TaqMan Reverse Transcription Reagents (Invitrogen). qPCR was performed in triplicate or quadruplicate using the Power SYBR Green PCR Master Mix (Invitrogen) on a 7500 Real-Time PCR System (Applied Biosystems) or a QuantStudio 6 Flex Real-Time PCR System (Applied Biosystems). Specificity of amplification was confirmed by melting curve analysis. Cycle threshold (CT) values for target genes were normalized to the endogenous reference gene GAPDH. Primer sequences (Table S3) were designed from the University of California Santa Cruz genome browser reference mRNA sequences using Primer3 ([43]).

[8] = tested on: nuclear pSTAT3 and total STAT3 in U3A cells; experiment: Nuclear and cytoplasmic fractionation immunoblotting in OSM-stimulated U3A cells; format: cell-based, human; conditions: 10 μM 1 h, 10 ng/ml OSM 30 min
Procedure: It should be noted that, given the variability inherent in chromatin immunoprecipitation (IP), few of the individual changes in binding reached statistical significance. However, the trend in each of the five genes was identical.
B, MDA-MB-468 cells were treated with 5 μM PYR for 24 h. Nuclear and cytoplasmic fractions were analyzed by immunoblotting with the indicated antibodies. PARP and tubulin were used as nuclear and cytoplasmic markers, respectively. C, U3A human fibrosarcoma cells stably expressing STAT3-dependent luciferase were pretreated with 10 μM PYR for 1 h and stimulated with 10 ng/ml oncostatin M (OSM) for 30 min. Nuclear and cytoplasmic fractions were analyzed by immunoblotting with the indicated antibodies. […] D, SKBR3 cells were treated with 10 μM PYR for 1 h, stimulated with 10 ng/ml leukemia inhibitory factor (LIF) for 30 min, and analyzed by chromatin immunoprecipitation with antibodies to STAT3 and RNA pol II (pol II). Binding at the indicated target genes was assessed by quantitative RT–PCR. Data are expressed as percent of input. […]
Cells were lysed on ice for 15 min in either radioimmunoprecipitation assay lysis buffer (Boston BioProducts) or EBC lysis buffer (50 mM Tris [pH 8.0], 250 mM NaCl, and 0.5% Nonidet-P40 [NP-40]) containing phosphatase and complete protease inhibitors (Roche). […] Immunoblots were developed, and band intensity was quantified using Fiji ([42]).

[9] = tested on: STAT3 DNA binding in SKBR3 cells; experiment: Chromatin immunoprecipitation, STAT3 binding at target genes; format: cell-based, human; conditions: 10 μM 1 h, 10 ng/ml LIF 30 min
Procedure: (§2) Nuclei were centrifuged at 660g for 5 min at 4 °C and lysed in 300 μl of nuclear lysis buffer (50 mM Tris [pH 8.1], 10 mM EDTA, 1% SDS, and phosphatase and protease inhibitors). […] Lysate was then added to 60 μl of Protein A/G PLUS agarose beads (catalog no.: 2003; Santa Cruz Biotechnology) and rotated for 4 to 6 h at 4 °C. […] Beads were resuspended in 150 μl elution buffer (100 mM sodium bicarbonate and 1% SDS) and incubated overnight at 65 °C. DNA was purified using a PCR Purification Kit (Qiagen) according to the manufacturer's protocol. qPCR was performed using the indicated primers (Table S3). Results were normalized to input.

[10] = tested on: RNA pol II recruitment in SKBR3 cells; experiment: Chromatin immunoprecipitation, RNA polymerase II binding at target genes; format: cell-based, human; conditions: 10 μM 1 h, 10 ng/ml LIF 30 min
Procedure: as §2

DHFR [11] = target: T1, DHFR
DHFR [12] = target: T1, DHFR; conditions: DHFR enzymatic IC50
STAT5 = conditions: original high-throughput screen; cited from earlier work
[13] = parameters: method as in printed; conditions: patients taking this drug for months at a time; ref not given; cited from earlier work
physchem = conditions: DHFR enzymatic assay medium with 5% DMSO, 37 °C, aqueous with cosolvent or surfactant or cyclodextrin, kinetic from dmso stock
[14] = 11 μM DHFR, 130 μM ligand, 200 μM NADPH, […] DMSO, 25 °C

Sequence of proteins of U3A human fibrosarcoma cells (4462 proteins detected) (Homo sapiens, UniProt O75449) (O75449 whole entry): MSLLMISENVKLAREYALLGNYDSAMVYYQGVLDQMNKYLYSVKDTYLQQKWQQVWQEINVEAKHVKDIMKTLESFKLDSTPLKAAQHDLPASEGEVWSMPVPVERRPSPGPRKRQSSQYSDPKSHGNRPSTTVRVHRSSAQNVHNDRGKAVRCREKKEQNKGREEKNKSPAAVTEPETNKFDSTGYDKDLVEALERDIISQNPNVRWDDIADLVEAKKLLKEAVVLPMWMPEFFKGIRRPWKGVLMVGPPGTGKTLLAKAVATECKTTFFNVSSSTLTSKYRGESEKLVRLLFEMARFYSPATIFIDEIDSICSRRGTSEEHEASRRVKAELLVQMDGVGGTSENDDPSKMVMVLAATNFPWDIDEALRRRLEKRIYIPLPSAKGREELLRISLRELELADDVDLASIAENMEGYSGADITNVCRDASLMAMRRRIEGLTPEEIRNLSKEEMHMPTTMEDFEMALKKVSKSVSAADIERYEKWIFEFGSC
Sequence of proteins of U3A human fibrosarcoma cells (4462 proteins detected) (Homo sapiens, UniProt P0C2W1) (P0C2W1 whole entry): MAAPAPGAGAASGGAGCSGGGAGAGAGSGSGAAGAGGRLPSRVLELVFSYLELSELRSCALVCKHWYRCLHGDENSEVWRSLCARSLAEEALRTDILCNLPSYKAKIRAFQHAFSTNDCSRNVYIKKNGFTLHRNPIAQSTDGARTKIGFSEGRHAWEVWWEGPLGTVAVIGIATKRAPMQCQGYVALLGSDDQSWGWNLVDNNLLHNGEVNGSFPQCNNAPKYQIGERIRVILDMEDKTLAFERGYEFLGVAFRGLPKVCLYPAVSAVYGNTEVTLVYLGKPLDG

CCc1nc(N)nc(N)c1-c1ccc(Cl)cc1 [pyrimethamine]
Log2 (PYR/DMSO) [1]: 0.18 | Log2 (PYR/DMSO) [2]: -0.04 | Log2 (PYR/DMSO), RRM1 [3]: 0.24 | Log2 (PYR/DMSO), MYBBP1A [4]: 0.26 | DHFR aggregation temperature (Tagg) in the presence of drug (DHFR [5]): ~53.2 °C | CHCHD2 stabilization by CETSA (CHCHD2): failed to validate | reduction of cellular ATP levels (U3A cells): about 75% | OSM-stimulated BCL6 expression [6]: significantly reduced | OSM-stimulated BCL6 expression [7]: significantly reduced | OSM-stimulated nuclear pSTAT3 or total STAT3 [8]: no effect | LIF-stimulated STAT3 binding at BCL6 [9]: minimal reduction | pol II recruitment at BCL6 [10]: complete loss | ΔH (DHFR [11]; [14]): -48.5 ± 2.9 kJ/mol | ΔS (DHFR [11]; [14]): −2.8 ± 1 cal/mol/°C | stoichiometry (DHFR [11]; one-site model): 1.0 ± 0.2 sites | difference in potency between pyrimethamine and methotrexate (DHFR [12]): ~500 fold | transcriptional activity of STAT5 (STAT5): no effect | concentration routinely achieved in the serum of patients [13]: 10 µM | solubility (physchem): > 1000 µM
